Reference: patent US20230123334A1, “AMINO LIPID COMPOUND, PREPARATION METHOD THEREFOR, AND APPLICATION THEREOF” (SHENZHEN SHENXIN BIOTECHNOLOGY CO., LTD., priority 2020, published 2023)

Tested on: HEK293 cells
Experiment: Preliminary screening as DNA vectors, GFP transfection of HEK293 cells
Format: cell-based
Conditions: amino lipid/DOPE liposome with 75 ng plasmid DNA (psin-EGFP-IRES-Puro); number of GFP-expressing cells divided by total nuclei (Hoechst)
Protocol: Cell line: HEK293 cells (ATCC CRL-1573™)
Medium: DMEM supplemented with 10% fetal bovine serum (Invitrogen)
Mode of screening: cell transfection on 96-well plates
Detection (readout): percentage of the number of GFP fluorescent cells relative to the total number of cells (the total number of cells was measured using nucleus dye Hoechst—see FIG. 2). Lipofectamine2000 (Invitrogen) was used as positive control, according to the manufacturer's instructions.
Method: an 8-channel pipette was used for sample addition. The contents shown were for a single well of a 96-well flat plate.
1. The compound (0.01 mmol) prepared in Example 1 was dissolved in 1 mL of anhydrous ethanol. After ultrasonically dissolved, 10 μL of the resultant amino lipid solution in ethanol was taken and mixed with 5 μL of DOPE solution in ethanol (0.01 m), and then to the obtained mixture was added 35 μL of 0.2M sodium acetate buffer (pH 5.6), and 50 μL of liposome solution was prepared by vortex at a constant rotating speed for 30 s. 4 μL was taken from the 50 μL liposome solution and added to 46 μL of 0.02M sodium acetate buffer (pH 5.6), and the final liposome solution was formed by vortex at a constant rotating speed for 30 s. 5 μL was taken from the final liposome solution and mixed with 75 ng plasmid DNA (psin-EGFP-IRES-Puro, Clontech) dissolved in 5 μL of 0.02 M sodium acetate buffer, and was allowed to stay at room temperature for 30 min to form a lipid/DNA transfection complex.
2. 10 μL of the lipid/DNA transfection complex was incubated at room temperature for 30 min, followed by addition of 90 μL of fresh resuspended cells (3-5×10^4 cells) and mixing with a pipette. 100 μL of cells+lipid/DNA complex was transferred to separate wells of a 96-well culture plate immediately, and placed in an incubator containing 5% CO2 at 37° C.
3. Hoechst33258 (Invitrogen) was added at a final concentration of 0.2 μg/mL to the cells 20 to 24 hours after initial cell transfection, and cultured in darkness at 37° C. for 15 min. Afterwards, the cells were washed once with a PBS solution, and then added with medium for culture for 20 to 24 h.
4. The cells were placed in a high-throughput confocal microscope (Molecular Devices ImageXpress), and four visual fields of the image of the cells were captured for each well, and images at three laser wavelengths were captured for each sample: bright field images of cells (FIG. 2(a) and FIG. 2(b)), Hoechst-staining images showing total nuclei (FIG. 2(c) and FIG. 2(d)) and GFP images showing success in transfection with the plasmid DNA and the expression of GFP (FIG. 2(e) and FIG. 2(f)). MetaXpress software was used to separately count the cells in the Hoechst-staining images and GFP images, and then the number of cells expressing GFP was divided by the total number of nuclei to give the absolute cell transfection efficiency. The absolute transfection efficiency was calculated as follows: […]

Structure (SMILES)	Absolute DNA transfection efficiency in HEK293 cells [%]
CCCCCCCCCCCCCCCCNc1nc(NCCCN2CCN(C)CC2)nc(SCCCCCC)n1 [S6N16 D9]	20.6
CCCCCCCCCCCCCCCCNc1nc(NCC2CCN(C)CC2)nc(SCCCCCC)n1 [S6N16 D10]	19.7
CCCCCCCCCCCCCCCCCCNc1nc(NCCN(C)C)nc(SCCCCCC)n1 [S6N18 D1]	21.0
CCCCCCCCCCCCCCCCCCNc1nc(NCCN2CCOCC2)nc(SCCCCCC)n1 [S6N18 D2]	2.5
CCCCCCCCCCCCCCCCCCNc1nc(NCCN2CCCC2)nc(SCCCCCC)n1 [S6N18 D3]	21.9
CCCCCCCCCCCCCCCCCCNc1nc(NCCN2CCCCC2)nc(SCCCCCC)n1 [S6N18 D4]	3.5
CCCCCCCCCCCCCCCCCCNc1nc(NCCN2CCN(C)CC2)nc(SCCCCCC)n1 [S6N18 D5]	15.4
CCCCCCCCCCCCCCCCCCNc1nc(NCCCN(C)C)nc(SCCCCCC)n1 [S6N18 D6]	21.8
CCCCCCCCCCCCCCCCCCNc1nc(NCCN(CC)CC)nc(SCCCCCC)n1 [S6N18 D7]	5.2
CCCCCCCCCCCCCCCCCCNc1nc(NCCCN2CCOCC2)nc(SCCCCCC)n1 [S6N18 D8]	8.1
CCCCCCCCCCCCCCCCCCNc1nc(NCCCN2CCN(C)CC2)nc(SCCCCCC)n1 [S6N18 D9]	14.1
CCCCCCCCCCCCCCCCCCNc1nc(NCC2CCN(C)CC2)nc(SCCCCCC)n1 [S6N18 D10]	13.0
CCCCCCSc1nc(NCCN(C)C)nc(SCCCCCC)n1 [S6S6 D1]	1.1
CCCCCCSc1nc(NCCN2CCOCC2)nc(SCCCCCC)n1 [S6S6 D2]	0.4
CCCCCCSc1nc(NCCN2CCCC2)nc(SCCCCCC)n1 [S6S6 D3]	4.4
CCCCCCSc1nc(NCCN2CCCCC2)nc(SCCCCCC)n1 [S6S6 D4]	1.4
CCCCCCSc1nc(NCCN2CCN(C)CC2)nc(SCCCCCC)n1 [S6S6 D5]	9.1
CCCCCCSc1nc(NCCCN(C)C)nc(SCCCCCC)n1 [S6S6 D6]	12.5
CCCCCCSc1nc(NCCN(CC)CC)nc(SCCCCCC)n1 [S6S6 D7]	23.0
CCCCCCSc1nc(NCCCN2CCOCC2)nc(SCCCCCC)n1 [S6S6 D8]	0.8
CCCCCCSc1nc(NCCCN2CCN(C)CC2)nc(SCCCCCC)n1 [S6S6 D9]	7.6
CCCCCCSc1nc(NCC2CCN(C)CC2)nc(SCCCCCC)n1 [S6S6 D10]	21.6

Structure (SMILES)	Absolute DNA transfection efficiency in HEK293 cells [%]
CCCCCCCSc1nc(NCCN(C)C)nc(SCCCCCC)n1 [S6S7 D1]	0.5
CCCCCCCSc1nc(NCCN2CCOCC2)nc(SCCCCCC)n1 [S6S7 D2]	1.2
CCCCCCCSc1nc(NCCN2CCCC2)nc(SCCCCCC)n1 [S6S7 D3]	1.4
CCCCCCCSc1nc(NCCN2CCCCC2)nc(SCCCCCC)n1 [S6S7 D4]	2.0
CCCCCCCSc1nc(NCCN2CCN(C)CC2)nc(SCCCCCC)n1 [S6S7 D5]	5.7
CCCCCCCSc1nc(NCCCN(C)C)nc(SCCCCCC)n1 [S6S7 D6]	6.9
CCCCCCCSc1nc(NCCN(CC)CC)nc(SCCCCCC)n1 [S6S7 D7]	22.2
CCCCCCCSc1nc(NCCCN2CCOCC2)nc(SCCCCCC)n1 [S6S7 D8]	0.0
CCCCCCCSc1nc(NCCCN2CCN(C)CC2)nc(SCCCCCC)n1 [S6S7 D9]	7.5
CCCCCCCSc1nc(NCC2CCN(C)CC2)nc(SCCCCCC)n1 [S6S7 D10]	21.6
CCCCCCCCSc1nc(NCCN(C)C)nc(SCCCCCC)n1 [S6S8 D1]	1.9
CCCCCCCCSc1nc(NCCN2CCOCC2)nc(SCCCCCC)n1 [S6S8 D2]	2.5
CCCCCCCCSc1nc(NCCN2CCCC2)nc(SCCCCCC)n1 [S6S8 D3]	2.8
CCCCCCCCSc1nc(NCCN2CCCCC2)nc(SCCCCCC)n1 [S6S8 D4]	1.3
CCCCCCCCSc1nc(NCCN2CCN(C)CC2)nc(SCCCCCC)n1 [S6S8 D5]	15.3
CCCCCCCCSc1nc(NCCCN(C)C)nc(SCCCCCC)n1 [S6S8 D6]	7.4
CCCCCCCCSc1nc(NCCN(CC)CC)nc(SCCCCCC)n1 [S6S8 D7]	15.0
CCCCCCCCSc1nc(NCCCN2CCOCC2)nc(SCCCCCC)n1 [S6S8 D8]	0.6
CCCCCCCCSc1nc(NCCCN2CCN(C)CC2)nc(SCCCCCC)n1 [S6S8 D9]	10.0
CCCCCCCCSc1nc(NCC2CCN(C)CC2)nc(SCCCCCC)n1 [S6S8 D10]	24.1
CCCCCCCCCSc1nc(NCCN(C)C)nc(SCCCCCC)n1 [S6S9 D1]	2.6
CCCCCCCCCSc1nc(NCCN2CCOCC2)nc(SCCCCCC)n1 [S6S9 D2]	9.1

Structure (SMILES)	Absolute DNA transfection efficiency in HEK293 cells [%]
CCCCCCCCCSc1nc(NCCN2CCCC2)nc(SCCCCCC)n1 [S6S9 D3]	6.9
CCCCCCCCCSc1nc(NCCN2CCCCC2)nc(SCCCCCC)n1 [S6S9 D4]	1.8
CCCCCCCCCSc1nc(NCCN2CCN(C)CC2)nc(SCCCCCC)n1 [S6S9 D5]	13.7
CCCCCCCCCSc1nc(NCCCN(C)C)nc(SCCCCCC)n1 [S6S9 D6]	7.1
CCCCCCCCCSc1nc(NCCN(CC)CC)nc(SCCCCCC)n1 [S6S9 D7]	10.2
CCCCCCCCCSc1nc(NCCCN2CCOCC2)nc(SCCCCCC)n1 [S6S9 D8]	2.0
CCCCCCCCCSc1nc(NCCCN2CCN(C)CC2)nc(SCCCCCC)n1 [S6S9 D9]	8.4
CCCCCCCCCSc1nc(NCC2CCN(C)CC2)nc(SCCCCCC)n1 [S6S9 D10]	18.0
CCCCCCCCCCSc1nc(NCCN(C)C)nc(SCCCCCC)n1 [S6S10 D1]	3.2
CCCCCCCCCCSc1nc(NCCN2CCOCC2)nc(SCCCCCC)n1 [S6S10 D2]	8.3
CCCCCCCCCCSc1nc(NCCN2CCCC2)nc(SCCCCCC)n1 [S6S10 D3]	4.4
CCCCCCCCCCSc1nc(NCCN2CCCCC2)nc(SCCCCCC)n1 [S6S10 D4]	4.5
CCCCCCCCCCSc1nc(NCCN2CCN(C)CC2)nc(SCCCCCC)n1 [S6S10 D5]	12.4
CCCCCCCCCCSc1nc(NCCCN(C)C)nc(SCCCCCC)n1 [S6S10 D6]	20.9
CCCCCCCCCCSc1nc(NCCN(CC)CC)nc(SCCCCCC)n1 [S6S10 D7]	7.7
CCCCCCCCCCSc1nc(NCCCN2CCOCC2)nc(SCCCCCC)n1 [S6S10 D8]	0.0
CCCCCCCCCCSc1nc(NCCCN2CCN(C)CC2)nc(SCCCCCC)n1 [S6S10 D9]	7.9
CCCCCCCCCCSc1nc(NCC2CCN(C)CC2)nc(SCCCCCC)n1 [S6S10 D10]	14.9
CCCCCCCCCCCSc1nc(NCCN(C)C)nc(SCCCCCC)n1 [S6S11 D1]	6.0
CCCCCCCCCCCSc1nc(NCCN2CCOCC2)nc(SCCCCCC)n1 [S6S11 D2]	18.7
CCCCCCCCCCCSc1nc(NCCN2CCCC2)nc(SCCCCCC)n1 [S6S11 D3]	12.4
CCCCCCCCCCCSc1nc(NCCN2CCCCC2)nc(SCCCCCC)n1 [S6S11 D4]	6.2
